Test results as given in patent publication US5747466A, “3-deoxy-3-descladinose derivatives of erythromycins A and B” (Abbott Laboratories, priority 1996, dated 1998).

What was measured:
Assay in all cases: In vitro antibacterial activity (MIC), agar dilution
[1] = system: STAPHYLOCOCCUS AUREUS A-5278; format: cell-based; conditions: S. aureus A-5278; BHI agar, 35-37 °C, 20-24 h
[2] = system: PSEUDOMONAS AERUGINOSA 5007; format: cell-based; conditions: P. aeruginosa 5007; BHI agar, 35-37 °C, 20-24 h
[3] = system: ESCHERICHIA COLI H560; format: cell-based; conditions: E. coli H560; BHI agar, 35-37 °C, 20-24 h
[4] = system: STAPHYLOCOCCUS AUREUS A5177; format: cell-based; conditions: S. aureus A5177; BHI agar, 35-37 °C, 20-24 h
[5] = system: STAPHYLOCOCCUS EPIDERMIDIS 3519; format: cell-based; conditions: S. epidermidis 3519; BHI agar, 35-37 °C, 20-24 h
[6] = system: STREPTOCOCCUS PYOGENES PIU 2548; format: cell-based; conditions: S. pyogenes PIU 2548; BHI agar, 35-37 °C, 20-24 h
[7] = system: ESCHERICHIA COLI DC-2; format: cell-based; conditions: E. coli DC-2; BHI agar, 35-37 °C, 20-24 h
[8] = system: STAPHYLOCOCCUS AUREUS ATCC 6538P; format: cell-based; conditions: S. aureus ATCC 6538P; BHI agar, 35-37 °C, 20-24 h
[9] = system: PSEUDOMONAS AERUGINOSA DPHD-2862; format: cell-based; conditions: P. aeruginosa DPHD-2862; BHI agar, 35-37 °C, 20-24 h
[10] = system: STR[…] 508; format: cell-based, Streptococcus agalactiae; conditions: S. agalactiae CMX 508; BHI agar, 35-37 °C, 20-24 h
Protocol: (§1) Representative compounds of the present invention were assayed in vitro for antibacterial activity as follows: Twelve petri dishes containing successive aqueous dilutions of the test compound mixed with 10 mL of sterilized Brain Heart Infusion (BHI) agar (Difco 0418-01-5) were prepared. Each plate was inoculated with 1:100 (or 1:10 for slow-growing strains, such as Micrococcus and Streptococcus) dilutions of up to 32 different microorganisms, using a Steers replicator block. The inoculated plates were incubated at 35°-37° C. for 20 to 24 hours. In addition, a control plate, using BHI agar containing no test compound, was prepared and incubated at the beginning and end of each test.
(§2) An additional plate containing a compound having known susceptibility patterns for the organisms being tested and belonging to the same antibiotic class as the test compound was also prepared and incubated as a further control, as well as to provide test-to-test comparability. Erythromycin A was used for this purpose.
(§3) After incubation, each plate was examined. The minimum inhibitory concentration (MIC) was defined as the lowest concentration of drug yielding no growth, a slight haze, or sparsely isolated colonies on the inoculum spot as compared to the growth control.

[11] = system: STREPTOCOCCUS PYOGENES 930; format: cell-based; conditions: S. pyogenes 930; BHI agar, 35-37 °C, 20-24 h
[12] = system: PROVIDENCIA STUARTII CMX 640; format: cell-based; conditions: P. stuartii CMX 640; BHI agar, 35-37 °C, 20-24 h
[13] = system: ESCHERICHIA COLI KNK 437; format: cell-based; conditions: E. coli KNK 437; BHI agar, 35-37 °C, 20-24 h
[14] = system: KLEBSIELLA PNEUMONIAE ATCC 8045; format: cell-based; conditions: K. pneumoniae ATCC 8045; BHI agar, 35-37 °C, 20-24 h
[15] = system: ACINETOBACTER CALCOACETICUS CMX 669; format: cell-based; conditions: A. calcoaceticus CMX 669; BHI agar, 35-37 °C, 20-24 h
[16] = system: PSEUDOMONAS AERUGINOSA DPHD-5263; format: cell-based; conditions: P. aeruginosa DPHD-5263; BHI agar, 35-37 °C, 20-24 h
[17] = system: M[…] ATCC 4698; format: cell-based, Micrococcus luteus; conditions: M. luteus ATCC 4698; BHI agar, 35-37 °C, 20-24 h
Protocol: as §1, §2, §3

[18] = system: M[…] ATCC 9341; format: cell-based, Micrococcus luteus; conditions: M. luteus ATCC 9341; BHI agar, 35-37 °C, 20-24 h
Protocol: as §1, §2, §3

[19] = system: ENTEROBACTER AEROGENES ATCC 13048; format: cell-based; conditions: E. aerogenes ATCC 13048; BHI agar, 35-37 °C, 20-24 h
[20] = system: STREPTOCOCCUS PYOGENES EES61; format: cell-based; conditions: S. pyogenes EES61; BHI agar, 35-37 °C, 20-24 h
[21] = system: STAPHYLOCOCCUS AUREUS CMX 642A; format: cell-based; conditions: S. aureus CMX 642A; BHI agar, 35-37 °C, 20-24 h
[22] = system: PSEUDOMONAS AERUGINOSA BMH10; format: cell-based; conditions: P. aeruginosa BMH10; BHI agar, 35-37 °C, 20-24 h
[23] = system: MYCOBACTERIUM SMEGMATIS ATCC 114; format: cell-based; conditions: M. smegmatis ATCC 114; BHI agar, 35-37 °C, 20-24 h
[24] = system: PSEUDOMONAS AERUGINOSA K799/WT; format: cell-based; conditions: P. aeruginosa K799/WT; BHI agar, 35-37 °C, 20-24 h
[25] = system: PSEUDOMONAS CEPACIA 296I; format: cell-based; conditions: P. cepacia 296I; BHI agar, 35-37 °C, 20-24 h

SMILES	minimum inhibitory concentration (MIC) [1]	minimum inhibitory concentration (MIC) [2]	minimum inhibitory concentration (MIC) [3]	minimum inhibitory concentration (MIC) [4]	minimum inhibitory concentration (MIC) [5]	minimum inhibitory concentration (MIC) [6]	minimum inhibitory concentration (MIC) [7]	minimum inhibitory concentration (MIC) [8]	minimum inhibitory concentration (MIC) [9]	minimum inhibitory concentration (MIC) [10]	minimum inhibitory concentration (MIC) [11]	minimum inhibitory concentration (MIC) [12]	minimum inhibitory concentration (MIC) [13]	minimum inhibitory concentration (MIC) [14]	minimum inhibitory concentration (MIC) [15]	minimum inhibitory concentration (MIC) [16]	minimum inhibitory concentration (MIC) [17]	minimum inhibitory concentration (MIC) [18]	minimum inhibitory concentration (MIC) [19]	minimum inhibitory concentration (MIC) [20]	further results
CC[C@H]1OC(=O)[C@H](C)C[C@H](C)[C@@H](O[C@@H]2O[C@H](C)C[C@H](N(C)C)[C@H]2O)[C@](C)(OC)C[C@@H](C)C(=NOCOCCOC)[C@H](C)[C@@H](O)[C@]1(C)O [Ex. 8]	> 100	> 100	25	1.56	0.1	6.2	100	0.1	100	0.02	> 100	> 100	100	25	12.5	100	0.2	0.02	> 100	0.02	minimum inhibitory concentration (MIC) [21]: 0.2; minimum inhibitory concentration (MIC) [22]: 100; minimum inhibitory concentration (MIC) [23]: 25; minimum inhibitory concentration (MIC) [24]: 100; minimum inhibitory concentration (MIC) [25]: > 100
CC[C@H]1OC(=O)[C@H](C)C[C@H](C)[C@@H](O[C@@H]2O[C@H](C)C[C@H](N(C)C)[C@H]2O)[C@](C)(OC)C[C@@H](C)C(=O)[C@H](C)[C@@H](O)[C@]1(C)O [Ex. 1]	> 100	> 100	> 100	25	50	3.1	> 100	25	> 100	3.1	> 100	> 100	> 100	> 100	> 100	> 100	6.2	3.1	> 100	1.56	minimum inhibitory concentration (MIC) [21]: 25; minimum inhibitory concentration (MIC) [22]: > 100; minimum inhibitory concentration (MIC) [23]: 100; minimum inhibitory concentration (MIC) [24]: > 100; minimum inhibitory concentration (MIC) [25]: > 100
CC[C@H]1OC(=O)[C@H](C)C[C@H](C)[C@@H](O[C@@H]2O[C@H](C)C[C@H](N(C)C)[C@H]2O)[C@](C)(OC)C[C@@H](C)C(=O)[C@H](C)[C@H]2N(CCc3ccc(Oc4ccccc4)cc3)C(=O)O[C@]12C [Ex. 5]	25	> 100	> 100	6.2	12.5	3.1	12.5	12.5	> 100	1.56	6.2	> 100	> 100	> 100	> 100	> 100	1.56	3.1	> 100	1.56	minimum inhibitory concentration (MIC) [21]: 12.5; minimum inhibitory concentration (MIC) [22]: > 100; minimum inhibitory concentration (MIC) [23]: 3.1; minimum inhibitory concentration (MIC) [24]: > 100; minimum inhibitory concentration (MIC) [25]: 100
CC[C@H]1OC(=O)[C@H](C)C[C@H](C)[C@@H](O[C@@H]2O[C@H](C)C[C@H](N(C)C)[C@H]2O)[C@](C)(OC)C[C@@H](C)C(=NOC)[C@H](C)[C@@H](O)[C@]1(C)O [Ex. 6]	> 100	> 100	50	6.2	12.5	0.78	0.78	6.2	> 100	0.39	> 100	100	25	> 100	> 100	50	0.39	0.39	> 100	0.39	minimum inhibitory concentration (MIC) [21]: 6.2; minimum inhibitory concentration (MIC) [22]: > 100; minimum inhibitory concentration (MIC) [23]: 3.1; minimum inhibitory concentration (MIC) [24]: > 100; minimum inhibitory concentration (MIC) [25]: 12.5
